In PubChem BioAssay AID1208 (EPA DSSTox, 2008):
Calls of active or inactive are those of the source.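 How the source made its calls: active means at least one rat sex group has a carcinogenic potency value and tumor site recorded; inconclusive means only rat studies were judged inadequate by the national testing program; inactive means no potency or tumor site, with negative rat experiments.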

System: rat chronic carcinogenicity bioassay, TD50
Assay: DSSTox (CPDBAS) Carcinogenic Potency Database Summary Rat Bioassay Results
Settings: for Potency: stronger effect = lower value
Procedure, shortened: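 Chronic long-term rat cancer bioassays from literature and NCI/NTP, taking the most positive result per sex. TD50 in mmol converted to a 1–100 Activity Score from log10(1/TD50). Mixtures lacking TD50 scored 50.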

[1] = TD50_Rat_Note: no positive results, TargetSites_Rat_Female: no positive results
[2] = TD50_Rat_Note: TD50 is harmonic mean of more than one positive test, TargetSites_Rat_Female: liver
[3] = TD50_Rat_Note: no positive results
[4] = TargetSites_Rat_Female: no positive results
[5] = TargetSites_Rat_Female: mammary gland

O=C(O)c1ccc(N=Nc2ccc(O)c(C(=O)O)c2)cc1
outcome [1]: inactive; no positive results

OC[P+](CO)(CO)CO
outcome [1]: inactive; no positive results

C1CCNCC1
outcome [1]: inactive; no positive results

Nc1ccc(N=Nc2ccc(-c3ccc(N=Nc4c(S(=O)(=O)O)cc5cc(S(=O)(=O)O)c(N=Nc6ccccc6)c(O)c5c4N)cc3)cc2)c(N)c1
Potency [2]: 1.39 mg/kg/day

CN1C(C(=O)Nc2ccccn2)=C(O)c2ccccc2S1(=O)=O
outcome [3]: inactive; no positive results

O=NN1CCNCC1
Potency (TD50_Rat_Note: TD50 is harmonic mean of more than one positive test, no positive results are statistically significant, TargetSites_Rat_Female: all tumor bearing animals): 8.78 mg/kg/day

ClCC(Cl)CCl
Potency (TD50_Rat_Note: TD50 is harmonic mean of more than one positive test, TargetSites_Rat_Female: clitoral gland, ear Zymbals gland, mammary gland, oral cavity, stomach): 1.35 mg/kg/day

CNNCc1ccc(C(=O)NC(C)C)cc1
Potency (TD50_Rat_Note: positive test results only by intraperitoneal or intravenous injection, TD50 is harmonic mean of more than one positive, TargetSites_Rat_Female: hematopoietic system, mammary gland, nervous system): 0.351 mg/kg/day
Potency (TD50_Rat_Note: positive test results only by intraperitoneal or intravenous injection): 4.01 mg/kg/day

O=C(O)c1ccc(O)c(O)c1
outcome [3]: inactive; no positive results

Cc1cc(N)ccc1N
outcome [1]: inactive; no positive results

O=C(O)CCCC/C=C(\c1ccccc1)c1cccnc1
outcome [1]: inactive; no positive results

O=[N+]([O-])c1ccc2c(c1)Cc1ccccc1-2
Potency: 0.285 mg/kg/day

FC(F)(F)C(Cl)Cl
Potency (TD50_Rat_Note: TD50 is harmonic mean of more than one positive test, greater than ten-fold variation among TD50 values for positive res, TargetSites_Rat_Female: liver): 2370 mg/kg/day

O=C1CCCCCN1
outcome [1]: inactive; no positive results

CC(O)c1ccccc1 (stereo not given)
Potency [4]: 458 mg/kg/day

C=CCN(CC(O)CO)N=O (stereo not given)
Potency (TargetSites_Rat_Female: esophagus, nasal cavity): 0.825 mg/kg/day

Nc1ccc(N(CCO)CCO)cc1
outcome [1]: inactive; no positive results

COc1ccc(N)c(C)c1
Potency (TD50_Rat_Note: TD50 is harmonic mean of more than one positive test, TargetSites_Rat_Female: urinary bladder): 470 mg/kg/day

CC1=C(C(=O)OC(C)C)C(c2cccc([N+](=O)[O-])c2)C(C(=O)OC2CN(C(c3ccccc3)c3ccccc3)C2)=C(N)N1 (stereo not given)
outcome [1]: inactive; no positive results

O=C(O)C(Cl)(Cl)Cl
outcome [3]: inactive; no positive results

O=NN1CC(=O)NC1=O
Potency (TD50_Rat_Note: TD50 is harmonic mean of more than one positive test, TargetSites_Rat_Female: all tumor bearing animals): 43.8 mg/kg/day

CSCCC(N)C(=O)O (stereo not given)
outcome [3]: inactive; no positive results

CCN(CC)c1ccc(N=Nc2cc[n+]([O-])cc2)cc1
Potency (TD50_Rat_Note: TD50 value is overestimated as upper 99% confidence limit from study with 100% tumor incidence but no lifetable, harmoni): 1.63 mg/kg/day

CN(N=O)c1ccc(N=O)cc1
Potency (TD50_Rat_Note: positive test results only by intraperitoneal or intravenous injection, no positive results are statistically significan): 1.3 mg/kg/day

CC(C)(C)NC[C@H](O)COc1cccc2c1CCCC2=O
outcome [1]: inactive; no positive results

C=CCOCC1CO1 (stereo not given)
outcome [1]: inactive; no positive results

CN(N=O)c1cccnc1
outcome [1]: inactive

ClCC(Cl)(Cl)Cl
outcome [1]: inactive; no positive results

Nc1ccc2cc3ccc(N)cc3nc2c1
outcome (TD50_Rat_Note: only experiment is NCI/NTP bioassay inadequate, TargetSites_Rat_Female: NTP bioassay inadequate): ntp bioassay inadequate

COc1cc(-c2ccc(N)c(OC)c2)ccc1N
Potency (TD50_Rat_Note: TD50 is harmonic mean of more than one positive test, TargetSites_Rat_Female: clitoral gland, ear Zymbals gland, large intestine, liver, mammary gland, oral cavity, skin, uterus): 1.04 mg/kg/day

C/C=C/C=C/C(=O)O
outcome [1]: inactive; no positive results

Cc1cc(Cc2cc(C)cc(C(C)(C)C)c2O)c(O)c(C(C)(C)C)c1
outcome [1]: inactive; no positive results

O=[N+]([O-])c1ccccc1
Potency (TD50_Rat_Note: TD50 is harmonic mean of more than one positive test, TargetSites_Rat_Female: liver, uterus): 25.5 mg/kg/day

CC(C)CCCCCCOC(=O)c1ccccc1C(=O)OCCCCCCC(C)C
Potency (TD50_Rat_Note: TD50 is harmonic mean of more than one positive test, TD50_Rat_mmol was not calculated for this mixture, but Activiity S, TargetSites_Rat_Female: hematopoietic system, liver): 861 mg/kg/day

CN(C)C(=S)[S][Pb][S]C(=S)N(C)C
outcome [1]: inactive; no positive results

O=P(O)(OCC(Br)CBr)OCC(Br)CBr (stereo not given)
Potency (TD50_Rat_Note: TD50 is harmonic mean of more than one positive test, TargetSites_Rat_Female: esophagus, liver, small intestine, stomach): 32 mg/kg/day

CCCCCC
outcome [1]: inactive; no positive results

OCl
outcome [1]: inactive; no positive results

C1OC1C1CO1 (stereo not given)
outcome [1]: inactive

CN(C)c1ccc(N=NS(=O)(=O)O)cc1
outcome [1]: inactive; no positive results

NC(=O)N(CCCO)N=O
Potency (TD50_Rat_Note: TD50 is harmonic mean of more than one positive test, TargetSites_Rat_Female: stomach): 0.978 mg/kg/day

O=NN(CCO)CC(O)CO (stereo not given)
Potency (TargetSites_Rat_Female: liver): 5.98 mg/kg/day

O=NN1C[C@H](O)C[C@H]1C(=O)O
outcome [1]: inactive; no positive results

CCC1(CCC(C)C)C(=O)NC(=O)NC1=O
outcome [3]: inactive; no positive results

Nc1ncn[nH]1
Potency (TD50_Rat_Note: TD50 is harmonic mean of more than one positive test, TargetSites_Rat_Female: pituitary gland, thyroid gland): 9.94 mg/kg/day

CN1[C@@H]2CC[C@H]1CC(OC(=O)C(CO)c1ccccc1)C2 (stereo not given in full)
outcome [1]: inactive; no positive results

O=C(O)c1cc(=O)[nH]c(=O)[nH]1
outcome [3]: inactive; no positive results

CCN=c1cc2oc3cc(NCC)c(C)cc3c(-c3ccccc3C(=O)OCC)c-2cc1C
outcome [1]: inactive; no positive results

COc1ccc([N+](=O)[O-])cc1N=Nc1c(O)c(C(=O)Nc2cccc([N+](=O)[O-])c2)cc2ccccc12
outcome [1]: inactive; no positive results

CN[C@@H](C)[C@H](O)c1ccccc1
outcome [1]: inactive; no positive results

O=C(O)c1cc(O)c(O)c(O)c1
outcome [3]: inactive; no positive results

O=C1CCN([C@@H]2O[C@H](CO)[C@@H](O)[C@H]2O)C(=O)N1
outcome [3]: inactive; no positive results

CC(C)C(C(=O)OC(C#N)c1cccc(Oc2ccccc2)c1)c1ccc(Cl)cc1 (stereo not given)
outcome [1]: inactive; no positive results

COc1ccc2c(c1)c(CC(=O)O)c(C)n2C(=O)c1ccc(Cl)cc1
Potency [5]: 1.15 mg/kg/day

CCN(N=O)C(=O)NCC(C)=O
Potency (TD50_Rat_Note: TD50 is harmonic mean of more than one positive test, harmonic mean of TD50 includes a value for upper 99% confidence li, TargetSites_Rat_Female: large intestine, lung, mammary gland, nervous system, skin, thyroid gland, uterus): 0.181 mg/kg/day

Cc1ncc([N+](=O)[O-])n1C
Potency [5]: 17 mg/kg/day

Cc1ccccc1
Potency (TD50_Rat_Note: TD50 is harmonic mean of more than one positive test, TargetSites_Rat_Female: Maltoni head cancers): 3060 mg/kg/day

CS(=O)(=O)c1ccc([C@@H](O)[C@@H](CO)NC(=O)C(Cl)Cl)cc1
outcome [1]: inactive; no positive results

O=C1c2ccccc2C(=O)N1SC(Cl)(Cl)Cl
outcome [1]: inactive; no positive results

ClCOCCl
Potency: 0.00357 mg/kg/day

CC(C)(OCc1ccc(-c2ccc(Cl)cc2)cc1)C(=O)O
outcome [1]: inactive; no positive results

N#CSCc1ccccc1
outcome [3]: inactive; no positive results

Clc1ccc(C(c2ccc(Cl)cc2)C(Cl)(Cl)Cl)cc1
Potency [2]: 84.7 mg/kg/day

CCN(C)N=O
Potency [4]: 0.0503 mg/kg/day

CC(=O)Nc1ccc(C(=O)CCl)cc1
outcome [1]: inactive; no positive results

CC(O)CN(CC(C)O)N=O (stereo not given)
Potency (TD50_Rat_Note: TD50 is harmonic mean of more than one positive test, TargetSites_Rat_Female: esophagus, nasal cavity): 0.846 mg/kg/day

C=CCOc1ccccc1OCC(O)CNC(C)C (stereo not given)
outcome [1]: inactive; no positive results

COc1ccc2c3c1O[C@H]1[C@@H](O)C=C[C@H]4[C@@H](C2)N(C)CC[C@@]341
outcome [1]: inactive; no positive results

ClC1(Cl)C2(Cl)C3C4(Cl)C1(Cl)C1(Cl)C4(Cl)C(Cl)(Cl)C3(Cl)C21Cl (stereo not given)
Potency: 1.46 mg/kg/day

CCC1(CC)C(=O)N=C(O)NC1=O
Potency (TD50_Rat_Note: TD50 is harmonic mean of more than one positive test, TargetSites_Rat_Female: no positive results): 45.7 mg/kg/day

CN(C)C=O
outcome [1]: inactive; no positive results

CCN(CC)C(=O)c1cccc(C)c1
outcome [1]: inactive; no positive results

O=C1OC(O)C(C(Cl)Cl)=C1Cl (stereo not given)
Potency (TD50_Rat_Note: TD50 is harmonic mean of more than one positive test, TargetSites_Rat_Female: adrenal gland, hematopoietic system, liver, mammary gland, thyroid gland): 0.583 mg/kg/day

NNC(=O)c1ccncc1
Potency (TD50_Rat_Note: TD50 is harmonic mean of more than one positive test, TargetSites_Rat_Female: mammary gland): 150 mg/kg/day

CNC(=O)Oc1cc(C)c(N(C)C)c(C)c1
outcome [1]: inactive; no positive results

CN(N=O)C(=O)Nc1nc2ccccc2s1
Potency (TargetSites_Rat_BothSexes: stomach): 1.13 mg/kg/day

Cc1cc(O)c(C(C)(C)C)cc1Sc1cc(C(C)(C)C)c(O)cc1C
outcome [1]: inactive; no positive results

COc1ccc(CCN2CCC(Nc3nc4ccccc4n3Cc3ccc(F)cc3)CC2)cc1
outcome [1]: inactive; no positive results

O=S(=O)(O)CCS
outcome [3]: inactive; no positive results

NNC(N)=S
outcome [1]: inactive

C=C1CC[C@H](O)C/C1=C/C=C1\CCC[C@]2(C)[C@@H]([C@H](C)CC[C@@H](O)C(C)(C)O)CC[C@@H]12
outcome [3]: inactive; no positive results

Clc1cc2c(c(Cl)c1Cl)Oc1c(cc(Cl)c(Cl)c1Cl)O2
Potency (TargetSites_Rat_Female: liver): 0.000596 mg/kg/day

O=NN1CSCSC1
outcome [1]: inactive

CCCOC(=O)c1cc(O)c(O)c(O)c1
outcome [1]: inactive; no positive results

CC(=O)Nc1ccc(OCC(O)CNC(C)C)cc1 (stereo not given)
outcome [1]: inactive; no positive results

CCCCCl
outcome [1]: inactive; no positive results

CCCCCCCC(=O)OCC(COC(=O)CCCCCCC)OC(=O)CCCCCCC
Potency: 5490 mg/kg/day

CC(COc1ccccc1)N(CCCl)Cc1ccccc1 (stereo not given)
Potency (TD50_Rat_Note: positive test results only by intraperitoneal or intravenous injection, TD50 is harmonic mean of more than one positive, TargetSites_Rat_Female: peritoneal cavity): 1.09 mg/kg/day

N#Cc1c(Cl)c(Cl)c(Cl)c(C#N)c1Cl
Potency (TD50_Rat_Note: TD50 is harmonic mean of more than one positive test, TargetSites_Rat_Female: kidney): 2270 mg/kg/day
